# From patent US3933784A, “Des-(ser^13)-srif and intermediates” (American Home Products Corporation, priority 1975, dated 1976)
# Positions of bridges follow the written chain, without caps; N, C: chain ends. No end group written: not given here.
# Test system: growth hormone
# Experiment: Growth hormone activity in nembutal-treated rats, growth hormone level by radioimmunoassay
# Type: in vivo
# Conditions: rats 200-250 g, nembutal 50 mg/kg i.p., 5 minutes later compound 800 μg per rat s.c. in saline; blood taken 15 minutes after injection; control rats 159 ± 16 ng/ml
# Description: After hydrolysis of the peptide in methanesulfonic acid for 18 hours at 120°C in an evacuated sealed tube, the following values for the amino acid residues are obtained: Ala 1.00, Gly 1.00, Cys 1.59, Lys 1.88, Asp 0.99, Phe 3.05, Trp (present, but not quantitated), Thr 1.76. The growth hormone activity of the compound of Example 3 was determined by injecting rats weighing about 200-250 g first with nembutal intraperitoneally at a dose of 50 mg/kg then after 5 minutes injecting the rats subcutaneously with a solution of the compound of Example 3 in saline at a dose of 800 μg per rat. Blood samples are taken 15 minutes after injection with the compound of Example 3 and the growth hormone level determined by radioimmunoassay.
substance,measurement,value
"L-alanylglycyl-L-cysteinyl-L-lysyl-L-asparaginyl-L-phenylalanyl-L-phenylalanyl-L-tryptophyl-L-lysyl-L-threonyl-L-phenylalanyl-L-threonyl-L-cysteine-(3-13 cyclic) disulfide (AGCKNFFWKTFTC; disulfide 3-13; UniProt P61278 103-116, looked up, variant S13*) [Example 3, tridecapeptide analog of somatostatin in which the amino acid in the thirteen position has been omitted]",growth hormone level,49 ± 7 ng/mL
